According to PubChem BioAssay (NCI):
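Exposure lasted 48 hours, with cells grown in 96-well plates and compounds tested at five concentrations. GI50 marks 50% less growth. TGI: total growth inhibition.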

test system: SK-MEL-28 melanoma; assay: inhibition of tumour cell growth, NCI panel, 48 h

Row | SMILES | TGI | GI50
1 | Cc1ccc(NC(=O)c2c(C)nc(=O)n3c2N(/N=C/c2ccc(Cl)cc2)CC3)cc1 | 31.2 µM | 
2 | CC1=Nc2ccccc2C1C(Cc1ccccc1N)c1c(C)[nH]c2ccccc12 (stereo not drawn) | 32.8 µM | 
3 | CCOP(=O)(Cc1ccc(CP(=O)(OCC)OCC)n1C)OCC | > 100 µM | 
4 | O=C(Nc1nc2ncn(CCI)c2c(=O)[nH]1)c1ccccc1 | > 100 µM | 
5 | CC(O)C(N=Cc1ccccc1[O-])C(=O)[O-].CC(O)C(N=Cc1ccccc1[O-])C(=O)[O-].[Co+2] (stereo not drawn) | > 100 µM | 31.9 µM

test system: SK-MEL-5 melanoma; assay: inhibition of tumour cell growth, NCI panel, 48 h

Row | SMILES | TGI
6 | CCN(CC)CCOc1ccc(/C=C(\C#N)c2ccc(OCCN(CC)CC)cc2)cc1 | 15.9 µM
7 | CC1=Nc2ccccc2C1C(Cc1ccccc1N)c1c(C)[nH]c2ccccc12 (stereo not drawn) | 27.8 µM
8 | CCOP(=O)(Cc1ccc(CP(=O)(OCC)OCC)n1C)OCC | > 100 µM
9 | O=C(Nc1nc2ncn(CCI)c2c(=O)[nH]1)c1ccccc1 | > 100 µM

test system: SK-OV-3 ovarian; assay: inhibition of tumour cell growth, NCI panel, 48 h

Row | SMILES | TGI | GI50
10 | O=C(/C=C/c1ccc(O)cc1)OC[C@@H](O)COC1OC(CO)C(O)C(O)C1O (stereo partly drawn) | > 100 µM | 
11 | CCN(CC)CCOc1ccc(/C=C(\C#N)c2ccc(OCCN(CC)CC)cc2)cc1 | > 64.2 µM | 
12 | Cc1ccc(NC(=O)c2c(C)nc(=O)n3c2N(/N=C/c2ccc(Cl)cc2)CC3)cc1 | 39.7 µM | 
13 | CC1=Nc2ccccc2C1C(Cc1ccccc1N)c1c(C)[nH]c2ccccc12 (stereo not drawn) | 53.3 µM | 
14 | CCOP(=O)(Cc1ccc(CP(=O)(OCC)OCC)n1C)OCC | > 100 µM | 
15 | O=C(Nc1nc2ncn(CCI)c2c(=O)[nH]1)c1ccccc1 | 90.5 µM | 
16 | CC(O)C(N=Cc1ccccc1[O-])C(=O)[O-].CC(O)C(N=Cc1ccccc1[O-])C(=O)[O-].[Co+2] (stereo not drawn) | > 100 µM | 70.9 µM

test system: SN12C renal; assay: inhibition of tumour cell growth, NCI panel, 48 h

Row | SMILES | TGI | GI50
17 | CCN(CC)CCOc1ccc(/C=C(\C#N)c2ccc(OCCN(CC)CC)cc2)cc1 | > 100 µM | 
18 | Cc1ccc(NC(=O)c2c(C)nc(=O)n3c2N(/N=C/c2ccc(Cl)cc2)CC3)cc1 | 30.6 µM | 
19 | CC1=Nc2ccccc2C1C(Cc1ccccc1N)c1c(C)[nH]c2ccccc12 (stereo not drawn) | 33.6 µM | 
20 | CCOP(=O)(Cc1ccc(CP(=O)(OCC)OCC)n1C)OCC | > 100 µM | 
21 | O=C(Nc1nc2ncn(CCI)c2c(=O)[nH]1)c1ccccc1 | > 100 µM | 
22 | CC(O)C(N=Cc1ccccc1[O-])C(=O)[O-].CC(O)C(N=Cc1ccccc1[O-])C(=O)[O-].[Co+2] (stereo not drawn) | > 100 µM | > 100 µM

test system: SNB-19 CNS; assay: inhibition of tumour cell growth, NCI panel, 48 h

Row | SMILES | TGI | GI50
23 | O=C(/C=C/c1ccc(O)cc1)OC[C@@H](O)COC1OC(CO)C(O)C(O)C1O (stereo partly drawn) | > 100 µM | 
24 | CCN(CC)CCOc1ccc(/C=C(\C#N)c2ccc(OCCN(CC)CC)cc2)cc1 | > 92 µM | 
25 | CC1=Nc2ccccc2C1C(Cc1ccccc1N)c1c(C)[nH]c2ccccc12 (stereo not drawn) | 41.6 µM | 
26 | CCOP(=O)(Cc1ccc(CP(=O)(OCC)OCC)n1C)OCC | > 100 µM | 
27 | O=C(Nc1nc2ncn(CCI)c2c(=O)[nH]1)c1ccccc1 | > 100 µM | 
28 | CC(O)C(N=Cc1ccccc1[O-])C(=O)[O-].CC(O)C(N=Cc1ccccc1[O-])C(=O)[O-].[Co+2] (stereo not drawn) | > 100 µM | > 100 µM

test system: SNB-75 CNS; assay: inhibition of tumour cell growth, NCI panel, 48 h

Row | SMILES | TGI | GI50
29 | CCN(CC)CCOc1ccc(/C=C(\C#N)c2ccc(OCCN(CC)CC)cc2)cc1 | 47.8 µM | 
30 | Cc1ccc(NC(=O)c2c(C)nc(=O)n3c2N(/N=C/c2ccc(Cl)cc2)CC3)cc1 | 34.1 µM | 
31 | CC1=Nc2ccccc2C1C(Cc1ccccc1N)c1c(C)[nH]c2ccccc12 (stereo not drawn) | 34.8 µM | 
32 | CCOP(=O)(Cc1ccc(CP(=O)(OCC)OCC)n1C)OCC | > 100 µM | 
33 | O=C(Nc1nc2ncn(CCI)c2c(=O)[nH]1)c1ccccc1 | 46.4 µM | 
34 | CC(O)C(N=Cc1ccccc1[O-])C(=O)[O-].CC(O)C(N=Cc1ccccc1[O-])C(=O)[O-].[Co+2] (stereo not drawn) | > 100 µM | > 100 µM

test system: SNB-78 CNS; assay: inhibition of tumour cell growth, NCI panel, 48 h

Row | SMILES | TGI | GI50
35 | O=C(/C=C/c1ccc(O)cc1)OC[C@@H](O)COC1OC(CO)C(O)C(O)C1O (stereo partly drawn) | > 100 µM | 
36 | CCN(CC)CCOc1ccc(/C=C(\C#N)c2ccc(OCCN(CC)CC)cc2)cc1 | > 87.5 µM | 
37 | Cc1ccc(NC(=O)c2c(C)nc(=O)n3c2N(/N=C/c2ccc(Cl)cc2)CC3)cc1 | 40.5 µM | 
38 | O=C(Nc1nc2ncn(CCI)c2c(=O)[nH]1)c1ccccc1 | > 100 µM | 
39 | CC(O)C(N=Cc1ccccc1[O-])C(=O)[O-].CC(O)C(N=Cc1ccccc1[O-])C(=O)[O-].[Co+2] (stereo not drawn) | > 100 µM | > 100 µM

test system: SR leukemia; assay: inhibition of tumour cell growth, NCI panel, 48 h

Row | SMILES | TGI | GI50
40 | O=C(/C=C/c1ccc(O)cc1)OC[C@@H](O)COC1OC(CO)C(O)C(O)C1O (stereo partly drawn) | > 100 µM | 
41 | CCN(CC)CCOc1ccc(/C=C(\C#N)c2ccc(OCCN(CC)CC)cc2)cc1 | 30 µM | 
42 | Cc1ccc(NC(=O)c2c(C)nc(=O)n3c2N(/N=C/c2ccc(Cl)cc2)CC3)cc1 | > 100 µM | 
43 | CC1=Nc2ccccc2C1C(Cc1ccccc1N)c1c(C)[nH]c2ccccc12 (stereo not drawn) | 50.3 µM | 
44 | O=C(Nc1nc2ncn(CCI)c2c(=O)[nH]1)c1ccccc1 | > 100 µM | 
45 | CC(O)C(N=Cc1ccccc1[O-])C(=O)[O-].CC(O)C(N=Cc1ccccc1[O-])C(=O)[O-].[Co+2] (stereo not drawn) | > 100 µM | 39.7 µM

test system: SW-620 colon; assay: inhibition of tumour cell growth, NCI panel, 48 h

Row | SMILES | TGI | GI50
46 | CCN(CC)CCOc1ccc(/C=C(\C#N)c2ccc(OCCN(CC)CC)cc2)cc1 | 29.6 µM | 
47 | CC1=Nc2ccccc2C1C(Cc1ccccc1N)c1c(C)[nH]c2ccccc12 (stereo not drawn) | 34.7 µM | 
48 | CCOP(=O)(Cc1ccc(CP(=O)(OCC)OCC)n1C)OCC | > 100 µM | 
49 | O=C(Nc1nc2ncn(CCI)c2c(=O)[nH]1)c1ccccc1 | > 100 µM | 
50 | CC(O)C(N=Cc1ccccc1[O-])C(=O)[O-].CC(O)C(N=Cc1ccccc1[O-])C(=O)[O-].[Co+2] (stereo not drawn) | > 100 µM | 78.2 µM

test system: TK-10 renal; assay: inhibition of tumour cell growth, NCI panel, 48 h

Row | SMILES | TGI | GI50
51 | O=C(/C=C/c1ccc(O)cc1)OC[C@@H](O)COC1OC(CO)C(O)C(O)C1O (stereo partly drawn) | > 100 µM | 
52 | CCN(CC)CCOc1ccc(/C=C(\C#N)c2ccc(OCCN(CC)CC)cc2)cc1 | > 91.3 µM | 
53 | CC1=Nc2ccccc2C1C(Cc1ccccc1N)c1c(C)[nH]c2ccccc12 (stereo not drawn) | 30.8 µM | 
54 | CCOP(=O)(Cc1ccc(CP(=O)(OCC)OCC)n1C)OCC | > 100 µM | 
55 | O=C(Nc1nc2ncn(CCI)c2c(=O)[nH]1)c1ccccc1 | > 100 µM | 
56 | CC(O)C(N=Cc1ccccc1[O-])C(=O)[O-].CC(O)C(N=Cc1ccccc1[O-])C(=O)[O-].[Co+2] (stereo not drawn) | > 100 µM | > 100 µM

test system: U251 CNS; assay: inhibition of tumour cell growth, NCI panel, 48 h

Row | SMILES | TGI
57 | O=C(/C=C/c1ccc(O)cc1)OC[C@@H](O)COC1OC(CO)C(O)C(O)C1O (stereo partly drawn) | > 100 µM
58 | CCN(CC)CCOc1ccc(/C=C(\C#N)c2ccc(OCCN(CC)CC)cc2)cc1 | 35.8 µM
59 | CC1=Nc2ccccc2C1C(Cc1ccccc1N)c1c(C)[nH]c2ccccc12 (stereo not drawn) | 32.4 µM
60 | CCOP(=O)(Cc1ccc(CP(=O)(OCC)OCC)n1C)OCC | > 100 µM
61 | O=C(Nc1nc2ncn(CCI)c2c(=O)[nH]1)c1ccccc1 | > 96.5 µM

test system: UACC-257 melanoma; assay: inhibition of tumour cell growth, NCI panel, 48 h

Row | SMILES | TGI | GI50
62 | O=C(/C=C/c1ccc(O)cc1)OC[C@@H](O)COC1OC(CO)C(O)C(O)C1O (stereo partly drawn) | > 100 µM | 
63 | CCN(CC)CCOc1ccc(/C=C(\C#N)c2ccc(OCCN(CC)CC)cc2)cc1 | 31.3 µM | 
64 | CC1=Nc2ccccc2C1C(Cc1ccccc1N)c1c(C)[nH]c2ccccc12 (stereo not drawn) | 32.4 µM | 
65 | CCOP(=O)(Cc1ccc(CP(=O)(OCC)OCC)n1C)OCC | > 100 µM | 
66 | O=C(Nc1nc2ncn(CCI)c2c(=O)[nH]1)c1ccccc1 | > 100 µM | 
67 | CC(O)C(N=Cc1ccccc1[O-])C(=O)[O-].CC(O)C(N=Cc1ccccc1[O-])C(=O)[O-].[Co+2] (stereo not drawn) | > 100 µM | > 100 µM

test system: UACC-62 melanoma; assay: inhibition of tumour cell growth, NCI panel, 48 h

Row | SMILES | TGI | GI50
68 | CCN(CC)CCOc1ccc(/C=C(\C#N)c2ccc(OCCN(CC)CC)cc2)cc1 | 31.9 µM | 
69 | Cc1ccc(NC(=O)c2c(C)nc(=O)n3c2N(/N=C/c2ccc(Cl)cc2)CC3)cc1 | 28.2 µM | 
70 | CC1=Nc2ccccc2C1C(Cc1ccccc1N)c1c(C)[nH]c2ccccc12 (stereo not drawn) | 26.3 µM | 
71 | CCOP(=O)(Cc1ccc(CP(=O)(OCC)OCC)n1C)OCC | > 100 µM | 
72 | O=C(Nc1nc2ncn(CCI)c2c(=O)[nH]1)c1ccccc1 | > 100 µM | 
73 | CC(O)C(N=Cc1ccccc1[O-])C(=O)[O-].CC(O)C(N=Cc1ccccc1[O-])C(=O)[O-].[Co+2] (stereo not drawn) | > 100 µM | 65.8 µM

test system: UO-31 renal; assay: inhibition of tumour cell growth, NCI panel, 48 h

Row | SMILES | TGI | GI50
74 | O=C(/C=C/c1ccc(O)cc1)OC[C@@H](O)COC1OC(CO)C(O)C(O)C1O (stereo partly drawn) | > 100 µM | 
75 | CCN(CC)CCOc1ccc(/C=C(\C#N)c2ccc(OCCN(CC)CC)cc2)cc1 | 31.2 µM | 
76 | Cc1ccc(NC(=O)c2c(C)nc(=O)n3c2N(/N=C/c2ccc(Cl)cc2)CC3)cc1 | 24 µM | 
77 | CC1=Nc2ccccc2C1C(Cc1ccccc1N)c1c(C)[nH]c2ccccc12 (stereo not drawn) | 31.8 µM | 
78 | CCOP(=O)(Cc1ccc(CP(=O)(OCC)OCC)n1C)OCC | > 100 µM | 
79 | O=C(Nc1nc2ncn(CCI)c2c(=O)[nH]1)c1ccccc1 | > 100 µM | 
80 | CC(O)C(N=Cc1ccccc1[O-])C(=O)[O-].CC(O)C(N=Cc1ccccc1[O-])C(=O)[O-].[Co+2] (stereo not drawn) | > 100 µM | 76.5 µM

test system: XF 498 CNS; assay: inhibition of tumour cell growth, NCI panel, 48 h

Row | SMILES | TGI | GI50
81 | CCN(CC)CCOc1ccc(/C=C(\C#N)c2ccc(OCCN(CC)CC)cc2)cc1 | 29.3 µM | 
82 | Cc1ccc(NC(=O)c2c(C)nc(=O)n3c2N(/N=C/c2ccc(Cl)cc2)CC3)cc1 | 34.1 µM | 
83 | CC1=Nc2ccccc2C1C(Cc1ccccc1N)c1c(C)[nH]c2ccccc12 (stereo not drawn) | 32.5 µM | 
84 | O=C(Nc1nc2ncn(CCI)c2c(=O)[nH]1)c1ccccc1 | > 61.2 µM | 
85 | CC(O)C(N=Cc1ccccc1[O-])C(=O)[O-].CC(O)C(N=Cc1ccccc1[O-])C(=O)[O-].[Co+2] (stereo not drawn) | > 100 µM | > 100 µM
